According to ChEMBL document CHEMBL1201862, “PubChem BioAssay data set” (2004):
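The compound was tested at five concentrations on cells cultured in 96-well plates, with a 48-hour exposure period. Abbreviation: GI50, concentration required for 50% inhibition of growth.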 The source made the active and inactive calls. Cut-off read from the data, not from the text of the source: active = GI50 up to about 1.1 µM and inactive = higher.

Key:
Assay in all cases: inhibition of tumour cell growth, NCI panel, 48 h
NCI-H460 = test system: NCI-H460
DU-145 = test system: DU-145
SNB-75 = test system: SNB-75
HCT-116 = test system: HCT-116
NCI-H522 = test system: NCI-H522
SF-268 = test system: SF-268
U-251 = test system: U-251
MDA-MB-231 = test system: MDA-MB-231
ACHN = test system: ACHN
HOP-92 = test system: HOP-92
786-0 = test system: 786-0
OVCAR-8 = test system: OVCAR-8
SK-MEL-28 = test system: SK-MEL-28
NCI/ADR-RES = test system: NCI/ADR-RES
HOP-62 = test system: HOP-62
UACC-257 = test system: UACC-257
NCI-H226 = test system: NCI-H226
T47D = test system: T47D
SK-MEL-2 = test system: SK-MEL-2
SNB-19 = test system: SNB-19
M14 = test system: M14
Hs-578T = test system: Hs-578T
RXF 393 = test system: RXF 393
SW-620 = test system: SW-620
OVCAR-4 = test system: OVCAR-4
HCC 2998 = test system: HCC 2998
BT-549 = test system: BT-549
A549 = test system: A549
EKVX = test system: EKVX
KM12 = test system: KM12
PC-3 = test system: PC-3
LOX IMVI = test system: LOX IMVI
IGROV-1 = test system: IGROV-1
SN12C = test system: SN12C
OVCAR-3 = test system: OVCAR-3
SF-539 = test system: SF-539
TK-10 = test system: TK-10
MCF7 = test system: MCF7
UACC-62 = test system: UACC-62
Malme-3M = test system: Malme-3M
K562 = test system: K562
A498 = test system: A498
HL-60 = test system: HL-60
UO-31 = test system: UO-31
SK-OV-3 = test system: SK-OV-3
MOLT-4 = test system: MOLT-4
SK-MEL-5 = test system: SK-MEL-5
MDA-MB-435 = test system: MDA-MB-435
OVCAR-5 = test system: OVCAR-5
HCT-15 = test system: HCT-15
COLO 205 = test system: COLO 205
CAKI-1 = test system: CAKI-1
CCRF-CEM = test system: CCRF-CEM
SF-295 = test system: SF-295
RPMI-8226 = test system: RPMI-8226
NCI-H23 = test system: NCI-H23
HT-29 = test system: HT-29
SR = test system: SR
MDA-N = test system: MDA-N

Measured: GI50

Cc1cc2c([nH]c3ccccc32)c(O)c1-c1c(C)cc2c([nH]c3ccccc32)c1O
inactive: NCI-H460 4.57 µM | DU-145 13 µM | SNB-75 14 µM | HCT-116 14.2 µM | NCI-H522 16.7 µM | SF-268 13.8 µM | U-251 11.5 µM | MDA-MB-231 17.5 µM | ACHN 14.3 µM | HOP-92 15.7 µM | 786-0 13.7 µM | OVCAR-8 15.7 µM | SK-MEL-28 30.5 µM | NCI/ADR-RES 13.9 µM | HOP-62 17.1 µM | UACC-257 16.5 µM | NCI-H226 18.5 µM | T47D 15.5 µM | SK-MEL-2 15.8 µM | SNB-19 16.9 µM | M14 14.8 µM | Hs-578T 15.3 µM | RXF 393 10.5 µM | SW-620 22.9 µM | OVCAR-4 15.3 µM | HCC 2998 10.6 µM | BT-549 18.8 µM | A549 12.1 µM | EKVX 13.8 µM | KM12 10.1 µM | PC-3 13.2 µM | LOX IMVI 16.7 µM | IGROV-1 12.4 µM | SN12C 2.48 µM | OVCAR-3 15.8 µM | SF-539 17 µM | TK-10 17.4 µM

O=C1C[C@@H](c2ccc(O)cc2)[C@@]2(O1)C(=O)O[C@H]([C@@H](O)CO)[C@@H]2O
inactive: NCI-H460 > 100 µM | DU-145 > 100 µM | MCF7 > 100 µM | SNB-75 > 100 µM | UACC-62 > 100 µM | HCT-116 > 100 µM | NCI-H522 > 100 µM | Malme-3M > 100 µM | K562 > 100 µM | A498 > 100 µM | HL-60 > 100 µM | SF-268 > 100 µM | U-251 > 100 µM | UO-31 > 100 µM | MDA-MB-231 > 100 µM | ACHN > 100 µM | SK-OV-3 > 100 µM | HOP-92 > 100 µM | MOLT-4 > 100 µM | SK-MEL-5 > 100 µM | MDA-MB-435 > 100 µM | OVCAR-5 > 100 µM | 786-0 > 100 µM | OVCAR-8 > 100 µM | SK-MEL-28 > 100 µM | NCI/ADR-RES > 100 µM | COLO 205 > 100 µM | UACC-257 > 100 µM | CAKI-1 > 100 µM | NCI-H226 > 100 µM | T47D > 100 µM | SK-MEL-2 > 100 µM | SNB-19 > 100 µM | M14 > 100 µM | CCRF-CEM > 100 µM | Hs-578T > 100 µM | SW-620 > 100 µM | OVCAR-4 > 100 µM | HCC 2998 > 100 µM | SF-295 > 100 µM | BT-549 > 100 µM | A549 > 100 µM | RPMI-8226 > 100 µM | EKVX > 100 µM | NCI-H23 > 100 µM | KM12 > 100 µM | HT-29 > 100 µM | PC-3 > 100 µM | LOX IMVI > 100 µM | IGROV-1 > 100 µM | SN12C > 100 µM | OVCAR-3 > 100 µM | SF-539 > 100 µM | TK-10 > 100 µM
> 100 µM: HCT-15

O=C(c1ccccc1)c1ccc2[nH]c(-c3c(Cl)c(Cl)c(Cl)c(Cl)c3C(=O)Nc3ccco3)nc2c1
27.2 µM: HCT-15
inactive: NCI-H460 33.5 µM | DU-145 78.9 µM | MCF7 24.8 µM | SNB-75 > 100 µM | UACC-62 49.5 µM | HCT-116 34 µM | NCI-H522 25.7 µM | K562 16.6 µM | A498 20 µM | HL-60 24.2 µM | SF-268 27 µM | U-251 42.5 µM | UO-31 51.5 µM | MDA-MB-231 34.4 µM | ACHN > 100 µM | SK-OV-3 > 100 µM | HOP-92 40.5 µM | MOLT-4 18.6 µM | SK-MEL-5 28.4 µM | MDA-MB-435 12.6 µM | OVCAR-5 > 100 µM | 786-0 96.2 µM | OVCAR-8 60.3 µM | SK-MEL-28 81.1 µM | NCI/ADR-RES 16.4 µM | COLO 205 45.5 µM | HOP-62 45.3 µM | UACC-257 45.7 µM | CAKI-1 > 100 µM | NCI-H226 54.2 µM | T47D 37 µM | SK-MEL-2 20.9 µM | SNB-19 99.8 µM | M14 36.7 µM | CCRF-CEM 26.9 µM | RXF 393 41.8 µM | SR 12.6 µM | SW-620 37.8 µM | OVCAR-4 42.3 µM | HCC 2998 15.4 µM | SF-295 23.6 µM | BT-549 22.2 µM | A549 26.5 µM | RPMI-8226 19.8 µM | EKVX 67 µM | NCI-H23 4.86 µM | KM12 33 µM | HT-29 28.4 µM | MDA-N 15.3 µM | PC-3 17.1 µM | LOX IMVI 38.1 µM | IGROV-1 41.1 µM | SN12C 48.2 µM | OVCAR-3 49.4 µM | TK-10 39.7 µM

COc1cccc(-c2nc(-c3cnccn3)n(C3OC(CO)C(O)C3O)n2)c1 (centres undefined)
inactive: NCI-H460 > 100 µM | DU-145 > 100 µM | MCF7 > 100 µM | SNB-75 > 100 µM | UACC-62 > 100 µM | HCT-116 > 100 µM | NCI-H522 > 100 µM | K562 > 100 µM | HL-60 > 100 µM | SF-268 > 100 µM | U-251 > 100 µM | UO-31 > 100 µM | MDA-MB-231 > 100 µM | SK-OV-3 > 100 µM | HOP-92 > 100 µM | MOLT-4 > 100 µM | SK-MEL-5 > 100 µM | MDA-MB-435 > 100 µM | OVCAR-5 > 100 µM | 786-0 > 100 µM | OVCAR-8 > 100 µM | SK-MEL-28 > 100 µM | NCI/ADR-RES > 100 µM | COLO 205 > 100 µM | HOP-62 > 100 µM | UACC-257 > 100 µM | T47D > 100 µM | SNB-19 > 100 µM | M14 > 100 µM | CCRF-CEM > 100 µM | SR > 100 µM | SW-620 > 100 µM | OVCAR-4 > 100 µM | HCC 2998 > 100 µM | SF-295 > 100 µM | BT-549 > 100 µM | A549 > 100 µM | EKVX > 100 µM | NCI-H23 > 100 µM | KM12 > 100 µM | HT-29 > 100 µM | MDA-N > 100 µM | PC-3 > 100 µM | LOX IMVI > 100 µM | IGROV-1 > 100 µM | SN12C > 100 µM | OVCAR-3 > 100 µM | SF-539 > 100 µM | TK-10 > 100 µM
> 100 µM: HCT-15

CC(=O)OC1CC2C(=O)C(=O)C1(C)C2(C)C (centres undefined)
inactive: NCI-H460 > 100 µM | DU-145 > 100 µM | MCF7 > 100 µM | SNB-75 > 100 µM | UACC-62 > 100 µM | HCT-116 > 100 µM | Malme-3M > 100 µM | K562 > 100 µM | A498 > 100 µM | HL-60 > 10 µM | SF-268 > 100 µM | U-251 > 100 µM | UO-31 > 100 µM | MDA-MB-231 > 100 µM | ACHN > 100 µM | SK-OV-3 > 100 µM | HOP-92 56.6 µM | MOLT-4 > 100 µM | SK-MEL-5 > 100 µM | MDA-MB-435 > 100 µM | OVCAR-5 > 100 µM | 786-0 > 100 µM | OVCAR-8 > 100 µM | SK-MEL-28 > 100 µM | NCI/ADR-RES > 100 µM | COLO 205 > 100 µM | HOP-62 > 100 µM | UACC-257 > 100 µM | NCI-H226 > 100 µM | T47D > 100 µM | SNB-19 > 100 µM | M14 > 100 µM | CCRF-CEM > 100 µM | SR > 100 µM | SW-620 > 100 µM | OVCAR-4 > 100 µM | HCC 2998 > 100 µM | SF-295 > 100 µM | BT-549 > 100 µM | A549 > 100 µM | RPMI-8226 > 100 µM | EKVX > 100 µM | NCI-H23 > 100 µM | HT-29 > 100 µM | MDA-N > 100 µM | PC-3 > 100 µM | IGROV-1 > 100 µM | SN12C > 100 µM | OVCAR-3 > 100 µM | TK-10 > 100 µM
> 100 µM: HCT-15
